Patent US20100260818A1, “STABLE MEDICATED CHEWING GUM COMPRISING CYCLODEXTRIN INCLUSION COMPLEX” (FERTIN PHARMA A/S, priority 2007, published 2010)
Several values for one entry are separate records, joined by “and”; a condition that tells them apart may be missing. Equal entries are not always repeated. Each block holds one molecule with its values, some of them ahead of it.

Legend:
[1] = β-cyclodextrin content of filtrates of cetirizine.2HCL/β-cyclodextrin reaction mixture (HPLC, ELSD); format: physicochemical
[2] = Suspension homogeneity (visual) and chemical stability of cetirizine and β-cyclodextrin suspension with hydroxy acids, salts, NaOH; conditions: for Suspension homogeneity compared to control: visual
Experimental: The effect of different hydroxy acids, hydroxy acid salts and sodium hydroxide on the suspension homogeneity and also on the chemical stability of cetirizine in the suspensions was studied.
The cetirizine and β-cyclodextrin suspensions were prepared by stirring aqueous cetirizine solution with cyclodextrin and with the additives.

[3] = Powder sample storage stability, impurities by HPLC (Example 9); format: physicochemical; conditions: 34 days, 40 degrees C., 75% relative humidity; cyclodextrin and cetirizine uncomplexed in same formulation
Experimental: The four samples were stored in capped 50 mL Polyethylene Duma™ containers (Superfos Pharma Pack, Denmark) at 40 degrees C. and 75% relative humidity for 34 days, and were subsequently analysed by HPLC.

[4] = molar ratio CTZ:Additive not calculated

Structure (SMILES): O=C(O)CC(O)(CC(=O)O)C(=O)O [Citric acid]
BCD content in the filtrate ([1]; molar ratio CTZ:Additive 1:1): 154 mg/mL | Suspension homogeneity compared to control ([2]; molar ratio CTZ:Additive 1:1): no significant change

Structure (SMILES): O=C([O-])C(O)C(O)C(=O)[O-].[K+].[Na+] (stereo not drawn) [K—Na-tartarate, Potassium-sodium-tartarate]
BCD content in the filtrate ([1]; molar ratio CTZ:Additive 1:5): 120 mg/mL | Suspension homogeneity compared to control ([2]; molar ratio CTZ:Additive 1:5): better

Structure (SMILES): O=C([O-])CC(O)(CC(=O)[O-])C(=O)[O-].[Na+].[Na+].[Na+] [Na-citrate, Tri-sodium citrate]
BCD content in the filtrate ([1]; molar ratio CTZ:Additive 1:4): 135 mg/mL | Chemical degradations affecting β-cyclodextrin and cetirizine component of the binary formulation ([2]; effective amount of additive 3-6% by weight): effectively suppressed | Suspension homogeneity compared to control ([2]; molar ratio CTZ:Additive 1:1): better | Suspension homogeneity compared to control ([2]; molar ratio CTZ:Additive 1:2): better | Suspension homogeneity compared to control ([2]; molar ratio CTZ:Additive 1:3): better | Suspension homogeneity compared to control ([2]; molar ratio CTZ:Additive 1:4): better

BCD content in the filtrate [1, 4]: 115 mg/mL and 125 mg/mL | Suspension homogeneity compared to control [2, 4]: no significant change
Structure (SMILES): [Na+].[OH-] [NaOH, Sodium hydroxide]

Structure (SMILES): O=C(O)C(O)C(O)C(=O)O (stereo not drawn) [Tartaric acid]
BCD content in the filtrate ([1]; molar ratio CTZ:Additive 1:2): 130 mg/mL | Suspension homogeneity compared to control ([2]; molar ratio CTZ:Additive 1:2): better

Effect on the stability of cetirizine [3]: does not have any significant effect
Structure (SMILES): OC[C@H]1O[C@@H]2O[C@H]3[C@H](O)[C@@H](O)[C@@H](O[C@H]4[C@H](O)[C@@H](O)[C@@H](O[C@H]5[C@H](O)[C@@H](O)[C@@H](O[C@H]6[C@H](O)[C@@H](O)[C@@H](O[C@H]7[C@H](O)[C@@H](O)[C@@H](O[C@H]8[C@H](O)[C@@H](O)[C@@H](O[C@H]1[C@H](O)[C@H]2O)O[C@@H]8CO)O[C@@H]7CO)O[C@@H]6CO)O[C@@H]5CO)O[C@@H]4CO)O[C@@H]3CO [un-complexed cyclodextrin, Beta-cyclodextrin]
